Experimental data taken from patent publication US11000033B2, “Ketone or oxime compound, and herbicide” (NISSAN CHEMICAL CORPORATION, priority 2014, dated 2021).

Legend:
Assay type in all cases: in vivo
[1] = tested on: directly sowed rice plant; experiment: Test Example 3: effect on crop by foliage application, Wagner pot (symbol b); conditions: application herbicide amount 320 g/ha; for b (directly sowed rice plant) effect on crop grade: Table 24
Procedure, shortened: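 Plants are raised from seed in flooded paddy conditions: water stands 0.1–0.5 cm over alluvial soil, and the pot is kept in a greenhouse at 25–30 °C. Species sown are barnyardgrass (E. crus-galli var. crus-galli), Leptochloa chinensis, Cyperus difformis and rice.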

rapeseed [2] = experiment: Test Example 5: effect on crop by foliage application, plastic box (symbol g); conditions: 320 g/ha, 3 weeks after application
Procedure, shortened: (§1)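 In a plastic box 7 cm deep filled with sterilized diluvial soil, seeds of crops and weeds such as Digitaria ciliaris, Avena fatua and Amaranthus retroflexus are sown in spots and covered with about 1.5 cm of soil before greenhouse growth at 25–30° C.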

Digitaria ciliaris [3] = experiment: Test Example 4: herbicidal effect by soil treatment (symbol F)
Procedure, shortened: (§2)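 Seeds were sown in sterilized diluvial soil, covered with about 1.5 cm of soil, and the soil surface was sprayed with a water-diluted emulsion of the compound at a predetermined rate. Plants grew in a greenhouse at 25° C. to 30° C.; effects were scored visually 3 weeks after application.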

rapeseed [4] = experiment: Test Example 4: effect on crop by soil treatment (symbol g)
Procedure, shortened: (§3)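 Diluvial soil (sterilized) in boxes; seeds placed spot-wise alongside weed species; ~1.5 cm covering soil. Greenhouse, 25–30° C.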

Chenopodium album = experiment: Test Example 5: herbicidal effect by foliage application, plastic box (symbol O); conditions: 320 g/ha, 3 weeks after application
Procedure, shortened: (§4)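 Leaf-applied emulsion, water-diluted to a preset herbicide dose, on two-week-old seedlings raised in a 25° C. to 30° C. greenhouse; injury rated at 3 weeks using earlier criteria.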

Digitaria ciliaris [5] = experiment: Test Example 5: herbicidal effect by foliage application, plastic box (symbol F); conditions: 320 g/ha, 3 weeks after application
Procedure, shortened: as §4

[6] = tested on: Echinochloa crus-galli var. crus-galli; experiment: Test Example 4: herbicidal effect by soil treatment (symbol H)
Procedure, shortened: as §2

Stellaria media = experiment: Test Example 5: herbicidal effect by foliage application, plastic box (symbol P); conditions: 320 g/ha, 3 weeks after application
Procedure, shortened: as §4

Veronica persica = experiment: Test Example 5: herbicidal effect by foliage application, plastic box (symbol R); conditions: 320 g/ha, 3 weeks after application
Procedure, shortened: as §4

Avena fatua [7] = experiment: Test Example 5: herbicidal effect by foliage application, plastic box (symbol I); conditions: 320 g/ha, 3 weeks after application
Procedure, shortened: as §4

Avena fatua [8] = experiment: Test Example 4: herbicidal effect by soil treatment (symbol I)
Procedure, shortened: as §2

Scirpus juncoides = experiment: Test Example 1: herbicidal activity, application before weed generation in submerged conditions (symbol B); conditions: application herbicide amount 320 g/ha
Procedure, shortened: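 Mixed weed seeds sown in alluvial soil under 4 cm of water, with rice seedlings at the 2.5-leaf stage added. Same-day treatment: emulsion diluted to a set herbicide amount onto the water. Three weeks at 25–30 °C, then graded on a six-step scale.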

Lolium multiflorum Lam. = experiment: Test Example 4: herbicidal effect by soil treatment (symbol K)
Procedure, shortened: as §2

rice = experiment: Test Example 4: effect on crop by soil treatment (symbol b)
Procedure, shortened: as §3

corn = experiment: Test Example 5: effect on crop by foliage application, plastic box (symbol c); conditions: 320 g/ha, 3 weeks after application
Procedure, shortened: as §1

wheat = experiment: Test Example 5: effect on crop by foliage application, plastic box (symbol e); conditions: 320 g/ha, 3 weeks after application
Procedure, shortened: as §1

[9] = application herbicide amount 320 g/ha

Row | Compound | b (directly sowed rice plant) effect on crop grade [1] | g: rapeseed, effect on crop grade (rapeseed [2]) | O: Chenopodium album, herbicidal effect grade (Chenopodium album) | F: Digitaria ciliaris, herbicidal effect grade (Digitaria ciliaris [5]) | P: Stellaria media, herbicidal effect grade (Stellaria media) | R: Veronica persica, herbicidal effect grade (Veronica persica) | I: Avena fatua, herbicidal effect grade (Avena fatua [7]) | B (Scirpus juncoides) herbicidal effect grade (Scirpus juncoides) | c: corn, effect on crop grade (corn) | e: wheat, effect on crop grade (wheat) | effect on crop b (directly sowed rice plant), grade 0-5 [1] | Herbicidal effect grade, B: Scirpus juncoides (Scirpus juncoides) | other results
1 | CON=C(CC1CC(OC(=O)C(C)(C)C)=C(c2c(C)cc(C)cc2OC)C1=O)C1CC1 (mixture of isomers) [13-006] | 5 (Herbicidal ratio of 90% or more (almost completely withered)) | 4 (Herbicidal ratio of 70% or higher and lower than 90%) | 2 (Herbicidal ratio of 20% or higher and lower than 40%) | 5 (Herbicidal ratio of 90% or more (almost completely withered)) | 3 (Herbicidal ratio of 40% or higher and lower than 70%) | 2 (Herbicidal ratio of 20% or higher and lower than 40%) | 5 (Herbicidal ratio of 90% or more (almost completely withered)) | 5 (Herbicidal ratio of 90% or more (almost completely withered)) | 5 (Herbicidal ratio of 90% or more (almost completely withered)) | 5 (Herbicidal ratio of 90% or more (almost completely withered)) | – | – | F: Digitaria ciliaris, herbicidal effect grade (Digitaria ciliaris [3]; [9]): 5 (Herbicidal ratio of 90% or more (almost completely withered)); g: rapeseed, effect on crop grade (rapeseed [4]; [9]): 3 (Herbicidal ratio of 40% or higher and lower than 70%); H: Echinochloa crus-galli var. crus-galli, herbicidal effect grade [6, 9]: 5 (Herbicidal ratio of 90% or more (almost completely withered)); I: Avena fatua, herbicidal effect grade (Avena fatua [8]; [9]): 0 (Herbicidal ratio of 5% or lower (almost no effect)); K: Lolium multiflorum Lam., herbicidal effect grade (Lolium multiflorum Lam.; [9]): 5 (Herbicidal ratio of 90% or more (almost completely withered)); b: directly sowed rice plant, effect on crop grade (rice; [9]): 5 (Herbicidal ratio of 90% or more (almost completely withered))
2 | Cc1cc(Br)cc(C)c1C1=C(O)CC(CC(=NOCC(F)(F)F)C2CC2)C1=O (stereo not shown) [9-009] | 5 (Herbicidal ratio of 90% or more (almost completely withered)) | 3 (Herbicidal ratio of 40% or higher and lower than 70%) | 0 (Herbicidal ratio of 5% or lower (almost no effect)) | 4 (Herbicidal ratio of 70% or higher and lower than 90%) | 0 (Herbicidal ratio of 5% or lower (almost no effect)) | 0 (Herbicidal ratio of 5% or lower (almost no effect)) | 5 (Herbicidal ratio of 90% or more (almost completely withered)) | 0 (Herbicidal ratio of 5% or lower (almost no effect)) | 3 (Herbicidal ratio of 40% or higher and lower than 70%) | 0 (Herbicidal ratio of 5% or lower (almost no effect)) | – | – | Herbicidal effect grade, F: Digitaria ciliaris (Digitaria ciliaris [3]; [9]): 5 (Herbicidal ratio of 90% or more (almost completely withered)); Effect on crop grade, g: rapeseed (rapeseed [4]; [9]): 0 (Herbicidal ratio of 5% or lower (almost no effect)); Herbicidal effect grade, H: Echinochloa crus-galli var. crus-galli [6, 9]: 0 (Herbicidal ratio of 5% or lower (almost no effect)); Herbicidal effect grade, I: Avena fatua (Avena fatua [8]; [9]): 0 (Herbicidal ratio of 5% or lower (almost no effect)); Herbicidal effect grade, K: Lolium multiflorum Lam. (Lolium multiflorum Lam.; [9]): 5 (Herbicidal ratio of 90% or more (almost completely withered)); Effect on crop grade, b: directly sowed rice plant (rice; [9]): 0 (Herbicidal ratio of 5% or lower (almost no effect))
3 | C=CCOC1=C(c2c(C)cc(C)cc2C)C(=O)C(CC(C)=NOC)C1 (stereo not shown) [1-007] | – | 0 (Herbicidal ratio of 5% or lower (almost no effect)) | 0 (Herbicidal ratio of 5% or lower (almost no effect)) | 0 (Herbicidal ratio of 5% or lower (almost no effect)) | 0 (Herbicidal ratio of 5% or lower (almost no effect)) | 0 (Herbicidal ratio of 5% or lower (almost no effect)) | 3 (Herbicidal ratio of 40% or higher and lower than 70%) | – | 0 (Herbicidal ratio of 5% or lower (almost no effect)) | 0 (Herbicidal ratio of 5% or lower (almost no effect)) | 0 (Herbicidal ratio of 5% or lower (almost no effect)) | 0 (Herbicidal ratio of 5% or lower (almost no effect)) | F (Digitaria ciliaris) herbicidal effect grade (Digitaria ciliaris [3]; [9]): 0 (Herbicidal ratio of 5% or lower (almost no effect)); g (rapeseed) effect on crop grade (rapeseed [4]; [9]): 0 (Herbicidal ratio of 5% or lower (almost no effect)); H (Echinochloa crus-galli var. crus-galli) herbicidal effect grade [6, 9]: 0 (Herbicidal ratio of 5% or lower (almost no effect)); I (Avena fatua) herbicidal effect grade (Avena fatua [8]; [9]): 0 (Herbicidal ratio of 5% or lower (almost no effect)); K (Lolium multiflorum Lam.) herbicidal effect grade (Lolium multiflorum Lam.; [9]): 2 (Herbicidal ratio of 20% or higher and lower than 40%); b (directly sowed rice plant) effect on crop grade (rice; [9]): 0 (Herbicidal ratio of 5% or lower (almost no effect))
4 | CON=C(C)CC1CC(OC(=O)N2CCOCC2)=C(c2c(C)cc(C)cc2C)C1=O (stereo not shown) [1-104] | – | – | – | – | – | – | – | – | – | – | 5 (Herbicidal ratio of 90% or more (almost completely withered)) | 4 (Herbicidal ratio of 70% or higher and lower than 90%) | g: rapeseed, effect on crop (criteria 0-5) (rapeseed [2]): 4 (Herbicidal ratio of 70% or higher and lower than 90%); F: Digitaria ciliaris, herbicidal effect grade (Digitaria ciliaris [3]; 320 g/ha): 5 (Herbicidal ratio of 90% or more (almost completely withered)); g: rapeseed, effect grade on crop (rapeseed [4]; 320 g/ha): 2 (Herbicidal ratio of 20% or higher and lower than 40%); O: Chenopodium album, herbicidal effect (criteria 0-5) (Chenopodium album): 2 (Herbicidal ratio of 20% or higher and lower than 40%); F: Digitaria ciliaris, herbicidal effect (criteria 0-5) (Digitaria ciliaris [5]): 5 (Herbicidal ratio of 90% or more (almost completely withered)); H: Echinochloa crus-galli var. crus-galli, herbicidal effect grade ([6]; 320 g/ha): 5 (Herbicidal ratio of 90% or more (almost completely withered)); P: Stellaria media, herbicidal effect (criteria 0-5) (Stellaria media): 1 (Herbicidal ratio of 5% or higher and lower than 20%); R: Veronica persica, herbicidal effect (criteria 0-5) (Veronica persica): 1 (Herbicidal ratio of 5% or higher and lower than 20%); I: Avena fatua, herbicidal effect (criteria 0-5) (Avena fatua [7]): 5 (Herbicidal ratio of 90% or more (almost completely withered)); I: Avena fatua, herbicidal effect grade (Avena fatua [8]; 320 g/ha): 3 (Herbicidal ratio of 40% or higher and lower than 70%); K: Lolium multiflorum Lam., herbicidal effect grade (Lolium multiflorum Lam.; 320 g/ha): 5 (Herbicidal ratio of 90% or more (almost completely withered)); b: directly sowed rice plant, effect grade on crop (rice; 320 g/ha): 5 (Herbicidal ratio of 90% or more (almost completely withered)); c: corn, effect on crop (criteria 0-5) (corn): 4 (Herbicidal ratio of 70% or higher and lower than 90%); e: wheat, effect on crop (criteria 0-5) (wheat): 0 (Herbicidal ratio of 5% or lower (almost no effect))
